The source of these data is ChEMBL document CHEMBL1140658, “Inhibitors of anthrax lethal factor” (Bioorg Med Chem Lett, 2007).

Assay [1] relates to J774.A1. Put plainly: Inhibition of anthrax lethal factor induced J774A.1 cell death at 20 uM by MTT assay. Type of assay: functional, Mus musculus. Further details: scale not given: the % may be the effect or the level left. On the technique in general: Tetrazolium assays rely on reduction of a dye to a coloured formazan, in cell work by metabolically active cells.
Assay [2] relates to J774.A1. Put plainly: Cytotoxicity against J774A.1 cells assessed as cell viability at 30 uM after 4 hrs by MTT assay. It is filed as functional, cell-based. The following applies: Mus musculus.
Assay [3] has as its system J774.A1. Put plainly: Inhibition of anthrax lethal factor induced J774A.1 cell death at 85 uM by MTT assay. Type of assay: functional, cell-based. Conditions: Mus musculus.
Assay [4] deals with T1, Lethal factor (Bacillus anthracis, UniProt P15917).
T1 sequence (P15917 whole entry): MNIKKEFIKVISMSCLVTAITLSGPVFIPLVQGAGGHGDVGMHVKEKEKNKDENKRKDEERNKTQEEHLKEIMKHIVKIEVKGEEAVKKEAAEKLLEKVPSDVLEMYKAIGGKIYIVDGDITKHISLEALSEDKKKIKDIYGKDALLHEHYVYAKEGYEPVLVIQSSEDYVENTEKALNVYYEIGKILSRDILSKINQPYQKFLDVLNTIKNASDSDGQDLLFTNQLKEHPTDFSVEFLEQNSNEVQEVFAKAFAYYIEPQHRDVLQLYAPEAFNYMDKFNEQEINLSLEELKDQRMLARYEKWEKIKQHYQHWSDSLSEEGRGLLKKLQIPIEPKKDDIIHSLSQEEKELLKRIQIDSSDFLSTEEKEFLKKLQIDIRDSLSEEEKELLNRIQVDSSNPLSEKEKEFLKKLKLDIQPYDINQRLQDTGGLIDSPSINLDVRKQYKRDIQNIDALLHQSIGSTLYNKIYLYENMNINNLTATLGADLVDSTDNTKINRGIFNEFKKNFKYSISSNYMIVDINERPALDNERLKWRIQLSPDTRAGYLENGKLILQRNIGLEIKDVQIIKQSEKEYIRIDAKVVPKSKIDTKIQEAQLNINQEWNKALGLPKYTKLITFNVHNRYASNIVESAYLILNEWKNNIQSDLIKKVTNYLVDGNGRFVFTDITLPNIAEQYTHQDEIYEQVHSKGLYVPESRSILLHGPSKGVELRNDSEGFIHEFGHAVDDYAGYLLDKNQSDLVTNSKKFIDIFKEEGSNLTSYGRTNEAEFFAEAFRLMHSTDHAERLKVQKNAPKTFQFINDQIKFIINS
Put plainly: Inhibition of anthrax lethal factor by FRET assay.

For assay [5], the target named is T2, Lethal factor (Bacillus anthracis) (UniProt P15917).
T2 sequence (whole entry): T1 sequence (P15917 whole entry)
As to the kind of experiment: (§1) Inhibition of anthrax lethal factor upto 100 uM by FRET assay.

The target of assay [6] is T2, Lethal factor (Bacillus anthracis). Described as §1. This is another data set of the same source.
In assay [7] the test system is J774.A1. Put plainly: Inhibition of anthrax lethal factor induced J774A.1 cell death by MTT assay. It is filed as functional, cell-based. The following applies: Mus musculus.
Assay [8] deals with J774.A1. Put plainly: Cytotoxicity against J774A.1 cells assessed as cell viability upto 30 uM after 4 hrs by MTT assay. Type of assay: functional, cell-based. The following applies: Mus musculus.

Broadly, the pIC50 is the negative decadic logarithm of the IC50, by convention in mol/L. Broadly, the pKi is the negative decadic logarithm of the Ki, by convention in mol/L.

pIC50, pKi: −log10 of the molar value. Calls of active or inactive are those of the source. The rule behind the calls is not given here.

Take `CCCCCCCC/C=C\CCCCCCCC(=O)NCCc1cc(O)c(O)c(O)c1`: the Activity in assay [1] was found to be 46%. In assay [2], the result was inactive. In addition, the outcome in assay [3] was inactive. In assay [4], this compound had a negative-log IC50 (pIC50) of 4.89 and a pKi of 5.77.
The compound `CCCCCCCC/C=C\CCCCCCCC(=O)NCCc1cc(O)c(O)cc1O` showed a pIC50 in assay [4] of 4.15.
On to `CCCCCCCC/C=C\CCCCCCCC(=O)NCCc1ccc(O)cc1`, for which the outcome in assay [5] and in assay [6] was inactive.
In the case of `CCCCCCCC/C=C\CCCCCCCC(=O)NCCc1ccc(O)c(O)c1` [OLEOYL DOPAMINE], the negative logarithm of the IC50 (pIC50) in assay [7] was 5.30; in assay [4], 4.82. For the same compound, in assay [4], the pKi is 5.52. Further, the Activity entry in assay [8] was “Not toxic”.
In assay [4], `CCCCCCCC/C=C\CCCCCCCC(=O)NCCc1ccc(C(=O)NO)cc1` gave a negative logarithm of the IC50 (pIC50) of 4.49 and a pKi of 5.22.
Consider `CCCCCCCC/C=C\CCCCCCCC(=O)NCCc1ccc(OC)c(OC)c1`, for which the outcome in assay [5] and in assay [6] was inactive.
